The values that follow come from publication PMC12389196, “Novel Indole-Based Sulfonylhydrazones as Potential Anti-Breast Cancer Agents: Synthesis, In Vitro Evaluation, ADME, and QSAR Studies” (Pharmaceuticals, 2025).

In general, IC50 refers to the concentration at which inhibition is half-maximal. A low value points to higher potency.

Several values for one entry are separate records, joined by “and”; a condition that tells them apart may be missing. Identical values can stand only once.

For experiment [1], the system named is MCF-7 (ER-positive breast adenocarcinoma) cells. More on the design: method as in PMID 36903304. To be noted: previous study ref 48; cited from earlier work.
The test system of experiment [2] is MDA-MB-231 (triple-negative breast cancer) cells. The experiment in a line: MTT assay, antiproliferative activity on MDA-MB-231 cells. The format is cell-based, human. To be noted: for IC50: MTT, 72 h; for SI MDA-MB-231 (selectivity index): SI = IC50 on Neuro-2a/IC50 on MDA-MB-231. The protocol: (§1) The antiproliferative activity of the novel indolyl-methylidene-substituted phenylsulfonylhydrazones (3a–j) and the bis-indole hydrazine derivative (4) was evaluated against two breast cancer cell lines: MCF-7 and MDA-MB-231. The MCF-7 cell line, derived from human breast adenocarcinoma, expresses estrogen receptor alpha (ER-α). In contrast, the MDA-MB-231 cell line represents triple-negative breast cancer (TNBC) and lacks expression of estrogen, progesterone, and HER2 receptors. Antiproliferative activity was expressed as IC50, the concentration (in μM) required to inhibit 50% of cell growth, and ligand efficiency (LE), calculated as LE = −log(IC50)/number of heavy atoms. To assess the selectivity index (SI = IC50 on Neuro-2a/IC50 on breast cancer cell line), the compounds were also tested on Neuro-2a cells, a mouse neuroblastoma cell line derived from brain tissue.
(§2) The in vitro antineoplastic activity of the synthesized compounds was tested against human breast cancer cell lines, comprising the triple-negative MDA-MB-231 and the […] MCF-7. Neuroblastoma mouse cells Neuro-2a were used as a non-breast cancer cell line reference. All cell lines were obtained from the German Collection of Microorganisms and Cell Cultures (DSMZ, Braunschweig, Germany) and cultivated and maintained in accordance with the supplier’s protocols. The cells were cultured in RPMI 1640 growth medium (Gibco, Thermo Fisher Scientific, Waltham, MA, USA), supplemented with 10% fetal bovine serum (FBS; Gibco, Thermo Fisher Scientific, Waltham, MA, USA) and 5% L-glutamine (Gibco, Thermo Fisher Scientific, Waltham, MA, USA), and incubated at standard conditions of 37 °C in a humidified environment with 5% CO2.
(§3) The cytostatic activity of the tested compounds was evaluated using the Mosmann MTT assay—a well-established colorimetric method for assessing cell viability. This assay measures mitochondrial enzyme activity by reducing the yellow dye MTT (3-(4,5-dimethylthiazol-2-yl)-2,5-diphenyltetrazolium bromide) into violet formazan crystals. The exponentially growing cells were harvested and seeded into 96-well plates at a density of 1.5 × 10^5 cells per well in 100 μL of medium and incubated for 24 h. The cell cultures were then treated with various concentrations (200–6.25 μM) of the tested compounds and incubated for 72 h. Cell viability was quantified as a percentage (%) relative to the untreated control, which was set at 100% viability.
(§4) The experimental data were analyzed using nonlinear regression in GraphPad Prism® software, version 9.0. Semi-logarithmic dose–response curves were generated, and the half-maximal inhibitory concentrations (IC50) of the tested compounds were calculated for each tumor cell line.
For orientation: Tetrazolium dyes change colour on reduction, which living cells bring about.

Experiment [3] has as its system Neuro-2a (mouse neuroblastoma) cells. The experiment in a line: MTT assay on Neuro-2a reference cells. The class given is cell-based. To be noted: N2a, 72 h. As to the method: as §1, §2, §3, §4
The subject of experiment [4] is MCF-7 (ER-positive breast adenocarcinoma) cells. The experiment in a line: MTT assay, antiproliferative activity on MCF-7 cells. To be noted: for IC50: MTT, 72 h; for SI MCF-7 (selectivity index): SI = IC50 on Neuro-2a/IC50 on MCF-7. The class given is cell-based, human. As to the method:
as §1, §2, §3, §4

Regarding `CC(=O)n1cc(C=NNS(=O)(=O)c2ccc(C)cc2)c2ccccc21` [1d, N′-[(1-acetyl-1H-indol-3-yl)methylidene]-4-methylbenzenesulfonohydrazide], in experiment [1], the “selectivity index MCF-7, earlier series of arylsulfonylhydrazones” value was not above 46.

With `COc1ccc(S(=O)(=O)N/N=C/c2cn(C(C)=O)c3ccccc23)cc1` [3a, N′-[(E)-(1-Acetyl-1H-indol-3-yl)methylidene]-4-methoxybenzene-1-sulfonohydrazide], the IC50 in experiment [2] (Homo sapiens, MDA-MB-231, 72 h) was found to be 20.1 ± 3.4 µM; in experiment [3], 58 ± 8.2 µM; in experiment [4] (Homo sapiens, MCF7, 72 h), 4.3 ± 1.3 µM. Further, in experiment [2], the “SI MDA-MB-231 (selectivity index)” value was 2.886. For the same compound, the “SI MCF-7 (selectivity index)” value in experiment [4] is 13.5 and 13.488.

For `CC(=O)n1cc(/C=N/NS(=O)(=O)c2c(C)cc(C)cc2C)c2ccccc21` [3b, N′-[(E)-(1-Acetyl-1H-indol-3-yl)methylidene]-2,4,6-trimethylbenzene-1-sulfonohydrazide], the half-maximal inhibitory concentration (IC50) in experiment [2] (Homo sapiens, MDA-MB-231, 72 h) was 16.3 ± 4.1 µM; in experiment [3] it was 83.9 ± 9.4 µM; in experiment [4] (Homo sapiens, MCF7, 72 h) it was 4 ± 0.9 µM. Besides, the “SI MDA-MB-231 (selectivity index)” value in experiment [2] is on record as 5.147. Further, the “SI MCF-7 (selectivity index)” value in experiment [4] was determined as 20.975.

In the case of `COc1ccc(S(=O)(=O)N/N=C/c2c[nH]c3ccc(Br)cc23)cc1` [3c, N′-[(E)-(5-Bromo-1H-indol-3-yl)methylidene]-4-methoxybenzene-1-sulfonohydrazide], the IC50 in experiment [2] (Homo sapiens, MDA-MB-231, 72 h) is 17.7 ± 2.3 µM; in experiment [3], 18.6 ± 3.9 µM; in experiment [4] (Homo sapiens, MCF7, 72 h), 5.2 ± 1 µM. For the same compound, the “SI MDA-MB-231 (selectivity index)” value in experiment [2] is listed as 1.051. For the same compound, the “SI MCF-7 (selectivity index)” value in experiment [4] came out at 3.577.

Take `Cc1cc(C)c(S(=O)(=O)N/N=C/c2c[nH]c3ccc(Br)cc23)c(C)c1` [3d, N′-[(E)-(5-Bromo-1H-indol-3-yl)methylidene]-2,4,6-trimethylbenzene-1-sulfonohydrazide]: the IC50 was found to be 19.9 ± 1.6 µM in experiment [2] (Homo sapiens, MDA-MB-231, 72 h); 21 ± 2.1 µM in experiment [3]; 4.2 ± 0.7 µM in experiment [4] (Homo sapiens, MCF7, 72 h). The “SI MDA-MB-231 (selectivity index)” value in experiment [2] was determined as 1.055. Besides, the “SI MCF-7 (selectivity index)” value in experiment [4] is 5.000.

Take `Cc1ccc(S(=O)(=O)N/N=C/c2c[nH]c3ccc(Br)cc23)cc1` [3e, N′-[(E)-(5-Bromo-1H-indol-3-yl)methylidene]-4-methylbenzene-1-sulfonohydrazide]: the concentration for half-maximal inhibition (IC50) came out at 18.7 ± 2.7 µM in experiment [2] (Homo sapiens, MDA-MB-231, 72 h); 34.8 ± 5.7 µM in experiment [3]; 29.6 ± 5.1 µM in experiment [4] (Homo sapiens, MCF7, 72 h). Moreover, in experiment [2], the “SI MDA-MB-231 (selectivity index)” value came out at 1.861. For the same compound, in experiment [4], the “SI MCF-7 (selectivity index)” value was 1.176.

Consider `O=S(=O)(N/N=C/c1c[nH]c2ccc(Br)cc12)c1ccccc1` [3f, N′-[(E)-(5-Bromo-1H-indol-3-yl)methylidene]benzene-1-sulfonohydrazide], for which the “SI MDA-MB-231 (selectivity index)” value in experiment [2] was determined as 2.319. Besides, the IC50 in experiment [3] was 10.9 ± 1.8 µM; in experiment [4] (Homo sapiens, MCF7, 72 h), less than 6 µM; in experiment [4], 5.9 ± 1.4 µM. Moreover, in experiment [4], the “SI MCF-7 (selectivity index)” value is recorded as 1.847.

For `COc1ccc(S(=O)(=O)N/N=C/c2c[nH]c3ccc(Cl)cc23)cc1` [3g, N′-[(E)-(5-Chloro-1H-indol-3-yl)methylidene]-4-methoxybenzene-1-sulfonohydrazide], the IC50 was determined as 14.7 ± 1.8 µM in experiment [2] (Homo sapiens, MDA-MB-231, 72 h); 26.2 ± 3.5 µM in experiment [3]; 12.7 ± 2.8 µM in experiment [4] (Homo sapiens, MCF7, 72 h). In experiment [2], the “SI MDA-MB-231 (selectivity index)” value amounted to 1.782. Further, the “SI MCF-7 (selectivity index)” value in experiment [4] amounted to 2.063.

As to `Cc1cc(C)c(S(=O)(=O)N/N=C/c2c[nH]c3ccc(Cl)cc23)c(C)c1` [3h, N′-[(E)-(5-Chloro-1H-indol-3-yl)methylidene]-2,4,6-trimethylbenzene-1-sulfonohydrazide], the IC50 in experiment [2] (Homo sapiens, MDA-MB-231, 72 h) is 18.1 ± 2.5 µM; in experiment [3] it was 24 ± 1.9 µM; in experiment [4] (Homo sapiens, MCF7, 72 h), 15.2 ± 2.1 µM. Moreover, in experiment [2], the “SI MDA-MB-231 (selectivity index)” value is 1.326. In experiment [4], the “SI MCF-7 (selectivity index)” value came to 1.579.

Take `Cc1ccc(S(=O)(=O)N/N=C/c2c[nH]c3ccc(Cl)cc23)c(C)c1` [3i, N′-[(E)-(5-Chloro-1H-indol-3-yl)methylidene]-2,4-dimethylbenzene-1-sulfonohydrazide]: the IC50 in experiment [2] (Homo sapiens, MDA-MB-231, 72 h) is less than 10 µM; in experiment [2], 9.5 ± 1.5 µM; in experiment [3] it was 15.9 ± 1.6 µM; in experiment [4] (Homo sapiens, MCF7, 72 h), 12.4 ± 3.2 µM. Further, the “SI MDA-MB-231 (selectivity index)” value in experiment [2] is given as 1.674. In experiment [4], the “SI MCF-7 (selectivity index)” value was determined as 1.282.

As to `Cc1ccc(S(=O)(=O)N/N=C/c2c[nH]c3ccc(Cl)cc23)cc1C` [3j, N′-[(E)-(5-Chloro-1H-indol-3-yl)methylidene]-3,4-dimethylbenzene-1-sulfonohydrazide], the IC50 in experiment [2] (Homo sapiens, MDA-MB-231, 72 h) came out at 13.3 ± 2.2 µM; in experiment [3] it was 35.5 ± 5.3 µM; in experiment [4] (Homo sapiens, MCF7, 72 h), 11.5 ± 2.3 µM. In addition, the “SI MDA-MB-231 (selectivity index)” value in experiment [2] is 2.669. The “SI MCF-7 (selectivity index)” value in experiment [4] came out at 3.087.

With `N.N.[Cl][Pt][Cl]` [Cisplatin, reference compound], the IC50 in experiment [2] worked out at 63.4 ± 7.2 µM; in experiment [4], 50.3 ± 6.5 µM.

For `Clc1ccc2[nH]cc(/C=N/N=C/c3c[nH]c4ccc(Cl)cc34)c2c1` [compound 4, 3,3′-[(1E,2E)-hydrazine-1,2-diylidenedi(E)methylylidene]bis(5-chloro-1H-indole)], the IC50 in experiment [2] (Homo sapiens, MDA-MB-231, 72 h) turned out to be 66 ± 7.4 µM; in experiment [3] it was 53.7 ± 3.1 µM; in experiment [4] (Homo sapiens, MCF7, 72 h), 21.4 ± 4.9 µM. The “SI MDA-MB-231 (selectivity index)” value in experiment [2] was 0.814. The “SI MCF-7 (selectivity index)” value in experiment [4] was found to be 2.509.

Turning to “N′-[(1-acetyl-1H-indol-3-yl)methylidene]benzenesulfonohydrazide [1c]”, the “selectivity index MCF-7, earlier series of arylsulfonylhydrazones” value in experiment [1] is listed as “up to 40”.
